Target: T1, EhRho5 (His-EhRho5; EhRacD) (Entamoeba histolytica, UniProt Q24817)
T1 construct: gene RACD; His-tagged (pET28a+), expressed in E. coli BL21(DE3), PCR-amplified full-length gene
Assay: nucleotide loading, GST-RBD pulldown
Settings: loaded with 10 mM EDTA; indirect read-out by Rhotekin RBD binding

T1 sequence (C4LV55 entry or part of it): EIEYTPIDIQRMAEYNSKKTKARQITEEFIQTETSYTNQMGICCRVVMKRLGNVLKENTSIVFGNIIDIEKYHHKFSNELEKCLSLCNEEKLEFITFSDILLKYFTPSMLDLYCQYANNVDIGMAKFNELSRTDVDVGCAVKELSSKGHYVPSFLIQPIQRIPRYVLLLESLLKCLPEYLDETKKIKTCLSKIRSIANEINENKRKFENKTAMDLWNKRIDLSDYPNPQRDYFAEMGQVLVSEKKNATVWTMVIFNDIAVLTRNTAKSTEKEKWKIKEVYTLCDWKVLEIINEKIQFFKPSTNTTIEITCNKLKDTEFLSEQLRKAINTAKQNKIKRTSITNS
T1 sequence (Q24817 whole entry): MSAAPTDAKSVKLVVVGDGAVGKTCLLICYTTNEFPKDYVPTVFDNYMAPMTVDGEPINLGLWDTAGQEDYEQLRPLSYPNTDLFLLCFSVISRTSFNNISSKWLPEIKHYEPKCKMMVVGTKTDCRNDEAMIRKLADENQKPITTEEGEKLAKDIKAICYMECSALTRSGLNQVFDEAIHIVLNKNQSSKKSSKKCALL

SMILES | nucleotide loading, GST-RBD pulldown
Nc1nc2c(ncn2[C@@H]2O[C@H](COP(=O)(O)OP(=O)(O)O)[C@@H](O)[C@H]2O)c(=O)[nH]1 [GDP] | GDP bound inactive EhRho5 from the GMPPNP (GTP analog) bound EhRho5
Nc1nc2c(ncn2[C@@H]2O[C@H](COP(=O)(O)OP(=O)(O)NP(=O)(O)O)[C@@H](O)[C@H]2O)c(=O)[nH]1 [GMPPNP] | nucleotide bound to His-EhRho5 was exchanged with excess of GMPPNP, a nonhydrolyzable GTP analogue

Source: PMC9173640, “PI Kinase-EhGEF2-EhRho5 axis contributes to LPA stimulated macropinocytosis in Entamoeba histolytica” (PLoS Pathogens, 2022)
